Assay results as given in patent EP4692089A1, “NITROGEN-CONTAINING HETEROCYCLIC COMPOUND AS AAK1 INHIBITOR” (Alicorn Pharmaceutical Co., Ltd., priority 2023, dated 2024).
Where a name gives a salt, the structure may show the parent alone.

Tests used:
AAK1 (30-330) protein [1] = molecular target: T1, AAK1 (30-330) protein (Homo sapiens, UniProt Q2M2I8); test: AAK1 kinase assay (ADP generated, detected by HPLC); format: biochemical; conditions: 3.5 nM AAK1, 22 µM ATP, 25°C, 3 h
T1 construct: (His)6x (N); TEV protease cleavage site (N); made in house; host or cells: Escherichia coli BL21(DE3)
Source text: Experimental objective: The objective of this test example is to test the effect of compounds on AAK1 kinase function.
Background principle: AAK1 phosphorylates the threonine residue in the micro-subunit of AP2 (AP2M1). In this process, ATP provides phosphate groups to generate ADP. Therefore, the activity of AAK1 kinase can be evaluated by detecting the amount of ADP generated.
(§1) Expression of AAK1 (30-330) protein: The AAK1 sequence (residues 30-330) was cloned into the pET24N vector with an N-terminal (His)6x tag and a tobacco etch virus (TEV) protease cleavage site. The constructed vector was transformed into Escherichia coli BL21(DE3). When the bacteria were cultured with shaking to reach an OD value of 0.6, 1 mM IPTG was added. […] The bacterial cells were collected and subjected to ultrasonic disruption. The supernatant was obtained by centrifugation, and the protein was purified using Ni-NTA. After dialysis, the concentration and purity of the protein were determined.
The reaction mixture was incubated in a metal bath at 25°C for 3 h. The reaction was terminated by adding 1% SDS, and the amount of ADP generated was detected by HPLC. IC50 values were calculated using GraphPad software.

AAK1 = molecular target: T2, AAK1 (Homo sapiens, UniProt Q2M2I8); test: Effect on AP2M1 phosphorylation in 293T cells co-transfected with AAK1 and AP2M1 (Western blot, anti-p-AP2M1); format: cell-based; conditions: p-AP2M1 level, incubated 3 h
T2 construct: HA; expressed in transfected cells; host or cells: 293T cells
Source text: Experimental objective: The objective of this test example is to determine the effect of compounds on AP2M1 phosphorylation in cells.
Background principle: Adaptor-associated kinase 1 (AAK1), also known as AP2-associated kinase 1, is a 104 kDa serine/threonine kinase. AAK1 interacts with the adaptor protein 2 (AP2) complex and phosphorylates the threonine residue in the micro-subunit of AP2 (AP2M1), thereby increasing its binding affinity for certain tyrosine-based or dileucine-based sorting signals of some membrane receptors. The inhibitory effect of compounds on AAK1 was evaluated by detecting the phosphorylation level of AP2M1 in cells, so as to screen candidate compounds.
On the second day, each T25 flask was co-transfected with 16 µg of plasmids (1 µg of AAK1/HA/pIRES and 15 µg of Flag/AP2MI/pcDNA) using a Lip2000 transfection reagent. On the third day, the cells were digested and resuspended, centrifuged at 1000 rpm for 5 minutes, and then seeded into 24-well plates at 450 µl per well (2 × 10^5 cells/well). Gradient dilutions of the compounds to be tested were prepared, 50 µl was added to each well, mixed thoroughly, and incubated at 37°C for 3 h. DMSO was set as a control, and cells without plasmid transfection were set as a blank control. After incubation, the cells were collected and washed twice with PBS. The cells were lysed on ice for 30 minutes using a cell lysis buffer containing the protease inhibitor PMSF. The concentration of protein samples was determined using a BCA kit. Protein electrophoresis: The voltage for the stacking gel was set at 60 V, and that for the separating gel was set at 120 V. After electrophoresis, electrotransfer was initiated. Electrotransfer conditions were set at 250 mA for 2 h. Blocking with 5% BSA was performed for 1 h. A specific primary antibody, anti-p-AP2M1, was added, and incubation was carried out overnight at 4°C on a shaker. Washing with TBST was conducted 4 times, with 2.5 minutes each time. A secondary antibody was incubated on a shaker at room temperature for 1 h. Washing with TBST was conducted 4 times, with 2.5 minutes each time. ECL was used for development to detect the expression level of p-AP2M1. Western blot bands were processed and converted using Image J and GraphPad software to calculate IC50.
IC50 (half maximal inhibitory concentration) refers to the half-inhibitory concentration of the measured antagonist. It can indicate the concentration of a certain drug or substance (inhibitor) that achieves half of the inhibition effect on certain biological processes (or certain substances involved in these processes, such as enzymes, cellular receptors, or microorganisms).

AAK1 (30-330) protein [2] = molecular target: T1, AAK1 (30-330) protein; test: CETSA test of binding ability to AAK1 protein (Western blot)
Description: Experimental objective: To detect the binding ability of compounds to AAK1 protein by means of a CETSA experiment.
Background principle: The CETSA experiment is a molecular detection means for measuring the affinity between drugs and target proteins. […] When a candidate drug is co-incubated with a target protein, if the candidate drug is an inhibitor of AAK1, it can bind to AAK1. […] On the contrary, the stability of the AAK1 protein after heating will be poorer, and the amount of the detected protein will be lower. In this way, the binding ability of the drug to the target protein can be evaluated, which is used for the screening of AAK1 protein inhibitors.
as §1
CETSA sample preparation: Samples were incubated with candidate drugs, control drugs, and control reagents separately for 30 minutes. Each group of samples was heated at approximately 10 pre-set temperature points. After being returned to room temperature, the samples were centrifuged at 20000 g, and the supernatants were collected. Protein samples were denatured by heating at 100°C for 10 minutes with a sample buffer. After the samples were returned to room temperature, Western blot detection was performed on them; the protein loading amount was controlled at 20 µg. […] The same operations were followed, and Western blot detection was conducted. Protein electrophoresis: The voltage for the stacking gel was set at 60 V, and that for the separating gel was set at 120 V. After electrophoresis, electrotransfer was initiated. Electrotransfer conditions were set at 250 mA for 2 h. Blocking with 5% BSA was performed for 1 h. A specific primary antibody was added, and incubation was carried out overnight at 4°C on a shaker. Washing with TBST was conducted 4 times, with 2.5 minutes each time. A secondary antibody was incubated on a shaker at room temperature for 1 h. Washing with TBST was conducted 4 times, with 2.5 minutes each time. ECL was used for development to detect the expression levels of AAK1 protein in different groups and at each temperature point. Western blot bands were processed and converted using Image J and GraphPad software to calculate EC50.

[3] = Blood-brain distribution in DPNP model rats; conditions: 1 mg/kg
Description: Experimental objective: This experiment aims to investigate the analgesic effect of test compounds on streptozotocin (STZ)-induced peripheral neuropathic pain (DPNP) in diabetic rat models and the brain-blood distribution of the compounds associated with the efficacy, via single oral gavage (ig.) administration.
After successful modeling, the baseline plantar pain threshold of the rats was tested using the Von Frey (UP-Down method) as the baseline pain threshold before administration, and the rats were evenly grouped according to their pain thresholds. The groups included a blank control group, a model group, a positive control group (1 mg/kg), a Compound 26 (0.5 mg/kg) group, and a Compound 26 (1 mg/kg) group. The next day, the rats were administered the vehicle or corresponding drugs. At 2 h, 3 h, 4 h, 5 h, and 6 h after administration, the pain threshold of the plantar region on the affected side of rats was determined using Von Frey filaments to calculate the pain threshold improvement rate of the test compounds against neuropathic pain in diabetic rats, and to observe the time-effect relationship. After the experiment, rats from groups G3-G5 (numbers 1-3 per group) were sacrificed, and plasma and brain tissue samples were collected for testing.

[4] = Pharmacokinetic test in SD rats; conditions: rat, plasma, po, 3 mg/kg
Description: Experimental objective: The objective of this experimental example is to test the pharmacokinetic profile of compounds in SD rats.
Route of administration: The animals were weighed before administration, and the dose was calculated based on their body weight. Administration was performed via intravenous injection and oral gavage.
Blood collection time points: After administration, for IV group: 0.083 h, 0.25 h, 0.5 h, 1 h, 2 h, 4 h, 8 h, and 24 h; for PO group: 0.25 h, 0.5 h, 1 h, 2 h, 4 h, 6 h, 8 h, and 24 h. Blood was collected via the jugular vein, with approximately 0.2 mL collected for each sample. The blood samples were anticoagulated with K2-EDTA and placed on ice after collection.
Plasma sample processing: After collection, the blood samples were placed on ice and centrifuged within 1 hour to separate plasma (centrifugation conditions: 6800g, 6 minutes, 2-8°C). The plasma samples were stored in a -80°C refrigerator before analysis.
Result analysis: Pharmacokinetic parameters were calculated using Phoenix WinNonlin 7.0 based on the plasma concentration data at different time points.

[5] = test system: streptozotocin (STZ)-induced peripheral neuropathic pain (DPNP) in diabetic rat models; test: Efficacy test in diabetic peripheral neuropathic pain (DPNP), Von Frey pain threshold; format: in vivo, SD rats
Description: Experimental methods: After the adaptation period, the rats were tested for baseline plantar pain threshold using the Von Frey (Up-Down method) before modeling. Subsequently, except for the blank control group, all other rats were fasted for 16 hours with free access to water and then intraperitoneally injected with streptozotocin for modeling (65 mg/kg; 2 mL/kg). One week after modeling, blood was collected from the tail tip to detect blood glucose levels after a 4-hour fast. Rats with blood glucose levels higher than 16.7 mmol/L were considered diabetic.

[6] = DPNP model rats, 6 h after intragastric administration

T2 sequence (Q2M2I8 whole entry): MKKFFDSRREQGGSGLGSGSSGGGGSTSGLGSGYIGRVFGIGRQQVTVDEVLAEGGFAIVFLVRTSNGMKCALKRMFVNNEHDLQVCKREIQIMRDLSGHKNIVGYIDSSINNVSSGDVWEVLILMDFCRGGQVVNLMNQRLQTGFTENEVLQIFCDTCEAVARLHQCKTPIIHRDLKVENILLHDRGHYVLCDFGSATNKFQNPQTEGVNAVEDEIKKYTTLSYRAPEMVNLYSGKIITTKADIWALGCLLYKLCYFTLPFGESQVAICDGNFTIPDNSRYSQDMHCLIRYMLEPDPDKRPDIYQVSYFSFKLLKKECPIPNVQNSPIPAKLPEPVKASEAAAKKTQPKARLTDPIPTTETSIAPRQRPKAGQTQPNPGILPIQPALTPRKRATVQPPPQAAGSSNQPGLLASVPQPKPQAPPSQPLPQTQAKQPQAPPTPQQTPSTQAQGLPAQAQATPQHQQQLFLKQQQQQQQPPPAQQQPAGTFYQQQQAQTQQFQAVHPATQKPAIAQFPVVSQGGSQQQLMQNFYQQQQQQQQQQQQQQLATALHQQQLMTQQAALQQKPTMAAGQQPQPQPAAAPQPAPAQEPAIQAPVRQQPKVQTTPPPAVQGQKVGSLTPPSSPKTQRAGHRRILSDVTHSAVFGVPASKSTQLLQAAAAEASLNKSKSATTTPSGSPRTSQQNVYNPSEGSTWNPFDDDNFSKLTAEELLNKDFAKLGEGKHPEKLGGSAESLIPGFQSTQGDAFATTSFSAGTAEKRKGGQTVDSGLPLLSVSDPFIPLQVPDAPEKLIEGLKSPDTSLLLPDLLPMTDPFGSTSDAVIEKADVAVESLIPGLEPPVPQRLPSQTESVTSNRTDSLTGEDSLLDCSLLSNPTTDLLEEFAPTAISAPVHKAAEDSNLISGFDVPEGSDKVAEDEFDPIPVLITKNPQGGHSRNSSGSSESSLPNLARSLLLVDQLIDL
T1 sequence (Q2M2I8 30-330): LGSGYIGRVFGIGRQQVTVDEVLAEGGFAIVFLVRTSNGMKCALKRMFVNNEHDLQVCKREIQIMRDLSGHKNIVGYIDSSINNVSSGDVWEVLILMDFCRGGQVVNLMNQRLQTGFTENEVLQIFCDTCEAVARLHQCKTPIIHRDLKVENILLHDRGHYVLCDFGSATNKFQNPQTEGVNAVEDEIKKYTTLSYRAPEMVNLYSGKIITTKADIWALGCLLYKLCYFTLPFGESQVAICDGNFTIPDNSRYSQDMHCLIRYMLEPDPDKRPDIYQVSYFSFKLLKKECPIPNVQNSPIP

Compound: CC(C)C[C@](C)(N)COc1ccc(-c2c[nH]c3nc(F)ccc23)nc1C(F)F [Compound 14]
- IC50 (AAK1 (30-330) protein [1]): 102 nM
- IC50 (AAK1): 10 to 100 nM
- EC50 (AAK1 (30-330) protein [2]): 10 to 100 nM

Compound: CC(C)C[C@@](C)(N)COc1ccc(-c2c[nH]c3ncccc23)nc1C(F)F [Compound 2, (R)-1-{[2-(difluoromethyl)-6-(1H-pyrrolo[2,3-b]pyridin-3-yl)pyridin-3-yl]oxy}-2,4-dimet hylpentan-2-amine]
- IC50 (AAK1 (30-330) protein [1]): 28.3 nM
- IC50 (AAK1): 10 to 100 nM
- EC50 (AAK1 (30-330) protein [2]): 10 to 100 nM

Compound: CC(C)C[C@](C)(N)COc1ccc(-c2c[nH]c3ncc(C(F)F)cc23)nc1C(F)F [Compound 28, (S)-1-{[2-(difluoromethyl)-6-[5-(difluoromethyl)-1H-pyrrolo[2,3-b]pyridin-3-yl]pyridin-3-yl]oxy}-2,4-dimethylpentan-2-amine formate]
- IC50 (AAK1 (30-330) protein [1]): 65.3 nM
- IC50 (AAK1): 10 to 100 nM
- EC50 (AAK1 (30-330) protein [2]): 10 to 100 nM

Compound: CC(C)C[C@](C)(N)COc1ccc(-c2ccnc3[nH]cnc23)nc1C(F)F [Compound 6]
- IC50 (AAK1 (30-330) protein [1]): 75.2 nM
- IC50 (AAK1): 10 to 100 nM
- EC50 (AAK1 (30-330) protein [2]): 10 to 100 nM

Compound: COc1ccnc2[nH]cc(-c3ccc(OC[C@@](C)(N)CC(C)C)c(C(F)F)n3)c12 [Compound 16, (S)-1-{[2-(difluoromethyl)-6-(4-methoxy-1H-pyrrolo[2,3-b]pyridin-3-yl)pyridin-3-yl]oxy}-2,4-dimethylpentan-2-amine tris(trifluoroacetate)]
- IC50 (AAK1 (30-330) protein [1]): 87.2 nM
- IC50 (AAK1): 10 to 100 nM
- EC50 (AAK1 (30-330) protein [2]): 10 to 100 nM

Compound: CC(C)C[C@@](C)(N)COc1ccc(-c2ccnc3c(F)cnn23)nc1C(F)F [Compound 19]
- IC50 (AAK1 (30-330) protein [1]): 87.3 nM
- IC50 (AAK1): 10 to 100 nM
- EC50 (AAK1 (30-330) protein [2]): 10 to 100 nM

Compound: CC(C)C[C@@](C)(N)COc1ccc(-c2ccnc3[nH]cnc23)nc1C(F)F [Compound 7]
- IC50 (AAK1 (30-330) protein [1]): 101 nM
- IC50 (AAK1): 10 to 100 nM
- EC50 (AAK1 (30-330) protein [2]): 100 to 1000 nM

Compound: COc1ccnc2[nH]cc(-c3ccc(OC[C@](C)(N)CC(C)C)c(C(F)F)n3)c12 [Compound 17, (R)-1-{[2-(difluoromethyl)-6-(4-methoxy-1H-pyrrolo[2,3-b]pyridin-3-yl)pyridin-3-yl]oxy}-2,4-dimethylpentan-2-amine]
- IC50 (AAK1 (30-330) protein [1]): 56.9 nM
- IC50 (AAK1): 100 to 1000 nM
- EC50 (AAK1 (30-330) protein [2]): 10 to 100 nM

Compound: Cc1nc2ccnn2c(-c2ccc(OC[C@@](C)(N)CC(C)C)c(C(F)F)n2)c1F [Compound 20]
- IC50 (AAK1 (30-330) protein [1]): 102 nM
- IC50 (AAK1): 10 to 100 nM
- EC50 (AAK1 (30-330) protein [2]): 10 to 100 nM

Compound: CC(C)C[C@](C)(N)COc1ncc(-c2c[nH]c3ncc(C(F)F)cc23)c(C(F)(F)F)n1 [Compound 39]
- IC50 (AAK1 (30-330) protein [1]): 101 nM
- IC50 (AAK1): 10 to 100 nM
- EC50 (AAK1 (30-330) protein [2]): 10 to 100 nM

Compound: CC(C)C[C@](C)(N)COc1ccc(-c2c[nH]c3ncc(C#N)cc23)nc1C(F)F [Compound 27]
- IC50 (AAK1 (30-330) protein [1]): 57.8 nM
- IC50 (AAK1): 100 to 1000 nM
- EC50 (AAK1 (30-330) protein [2]): 10 to 100 nM

Compound: CC(C)C[C@](C)(N)COc1ccc(-c2c[nH]c3ncc(Cl)cc23)nc1C(F)F [Compound 44, (S)-1-{[6-(5-chloro-1H-pyrrolo[2,3-b]pyridin-3-yl)-2-(difluoromethyl)pyridin-3-yl]oxy}-2,4-dimethylpentan-2-amine]
- IC50 (AAK1 (30-330) protein [1]): 8.2 nM
- IC50 (AAK1): < 10 nM
- EC50 (AAK1 (30-330) protein [2]): < 10 nM

Compound: CC(C)C[C@](C)(N)COc1ccc(-c2c[nH]c3ncc(C(F)F)cc23)cc1C(F)(F)F [Compound 33]
- IC50 (AAK1 (30-330) protein [1]): 69.5 nM
- IC50 (AAK1): 10 to 100 nM
- EC50 (AAK1 (30-330) protein [2]): 10 to 100 nM

Compound: CC(C)C[C@](C)(N)COc1ccc(-c2ccnc(C(F)F)c2)nc1C(F)F [BMS-986176, reference compound]
- IC50 (AAK1 (30-330) protein [1]): 260 nM
- Brain tissue concentration [3, 6]: 26.94 ng/mL
- Brain tissue concentration* [3, 6]: 296.36 ng/g
- Plasma concentration [3, 6]: 34.38 ng/mL
- Kp at 6 h ([3]; rat, brain, po): 8.62
- AUC(0-inf) [4]: 1160 ng·h/mL
- AUC(0-t) [4]: 1070 ng·h/mL
- Cmax [4]: 85.6 ng/mL
- MRT inf [4]: 9.5 h
- MRT last [4]: 7.52 h
- Tmax [4]: 3.33 h
- half-life [4]: 6.32 h
- IC50 (AAK1): 100 to 1000 nM
- MWT (g) After modeling ([5]; 1 mg/kg group, after modeling, before administration, x±s, n=5): 7.00 ± 1.83 g
- Pain threshold improvement rate 2h ([5]; 1 mg/kg single ig., 2 h): 64.51
- MWT (g) 2h ([5]; 1 mg/kg single ig., 2 h after administration, x±s, n=5): 10.38 ± 2.59 g
- Pain threshold improvement rate 3 h ([5]; 1 mg/kg single ig., 3 h): 42.24
- MWT (g) 3 h ([5]; 1 mg/kg single ig., 3 h after administration, x±s, n=5): 7.51 ± 4.29 g
- Pain threshold improvement rate 4h ([5]; 1 mg/kg single ig., 4 h): 20.35
- MWT (g) 4 h ([5]; 1 mg/kg single ig., 4 h after administration, x±s, n=5): 5.06 ± 2.76 g
- Pain threshold improvement rate 5 h ([5]; 1 mg/kg single ig., 5 h): 16.32
- MWT (g) 5 h ([5]; 1 mg/kg single ig., 5 h after administration, x±s, n=5): 4.82 ± 1.07 g
- Pain threshold improvement rate 6h ([5]; 1 mg/kg single ig., 6 h): 20.85
- MWT (g) 6h ([5]; 1 mg/kg single ig., 6 h after administration, x±s, n=5): 4.63 ± 0.64 g
- duration of analgesia ([5]; 1 mg/kg, time after administration): ≤ 4 h
- EC50 (AAK1 (30-330) protein [2]): 100 to 1000 nM
